Where two headings read alike, the source gives them in different places. Blank lines part the entries; values can stand above or below the molecule they belong to.
What was measured:
PSMA = PSMA (Homo sapiens, UniProt Q04609); test: PSMA competitive binding, PC-3 PIP cells with [125I]MIP-1095; parameters: expressed in transfected cells; host or cells: PC-3 PIP cells
Protocol: In vitro binding assays were carried out to determine the PSMA binding affinity of various compounds. By incubating PSMA positive cells either with: 1). LNCaP with 0.2 nM [^68Ga]PSMA-11 or [^125I]MIP-1095, as the ligand, in the presence of 10 different concentrations of competing ligands; non-specific binding was defined with 20 μM 2-PMPA (2-(phosphonomethyl)pentanedioic acid); or 2). PC-3 PIP cells with [^125I]MIP-1095 (0.18 nM diluted in PBS) in presence of different concentration of test compounds ([…] diluted in PBS containing 0.1% bovine serum albumin). Nonspecific binding (NSB) was defined with 2 μM the known PSMA inhibitor, PSMA-617. After incubation at 37° C. for 1 h, the bound and free fractions were separated by vacuum filtration through GF/B filters using a Brandel M-24R cell harvester. The filters were washed twice with cold Tris-HCl buffer (50 mM, pH=7.4), and the radioactivity on the filters was counted in a gamma counter (Wizard^2, Perkin-Elmer) with 50% efficiency. The nonspecific bound was less than 10% of the total bound. Data were analyzed using GraphPad Prism 6.0 with a nonlinear regression algorithm to obtain the half maximal inhibitory concentration (IC50).
The binding affinities to PSMA of the test compounds were measured by a competitive binding assay using either LNCap or PC-3 PIP cells suspension and the known radiotracers known to have high affinity and specificity to PSMA, [^68Ga]PSMA-11 or [^125I]MIP-1095. The IC50 values of four iodinated compounds, three DOTA, DOTAG and DOTA(GA)2 related compounds and two known PSMA inhibitors are shown in Table 1. Complexes of compound 4 and natural Ga and natural Lu were also tested. […] After labeling with radioisotope they are expected to bind to the tumor tissues over expressing PSMA binding sites.

PIP tumor and PC3 tumor = test: Biodistribution of 125I labeled compounds 17, 18, 26 and 27 in tumor bearing nude mice; format: in vivo; conditions: for Biodistribution: Bladder* / Biodistribution: Stomach* / Biodistribution: large intestine* / Biodistribution: small intestine*: organ with content; for PIP/blood / PIP/muscle: ratio
Protocol: Radioiodination and Purification: 100 μg of either precursor 13, 14, 22 or 23 were dissolved in 100 μL EtOH; 22 μL Na^125I (1033-1118 μCi in 0.1 N NaOH), 100 μL 1N HCl and 100 μL 3% H2O2 were added. After 15 minutes at room temperature, the reaction was stopped by adding 150 μL sat. NaHSO3. The reaction mixture was slowly added to 1.5 mL sat. NaHCO3. Vial was rinsed with 1000 μL EtOH and mixture was diluted further to 10 mL mL water. The active sample was transferred onto an activated C4 mini column. The mixture was pushed through, washed twice with 3 mL water and the product was eluted with 1 mL ACN. Added 100 μL DMSO. The mixture was concentrated to ˜100 μL and purified by HPLC (Agilent Eclipse XCD C18 150×4.6 mm, 5 μm; 4 mL/min, gradient (ACN and water; 0-1 min (20/80), 1-16 min (20/80-100/0), 16-16.5 min (100/0-20/80), 16.5-20 min 20/80) (collected every minute). The sample was blown to dryness under argon, re-dissolved in 500 μL CH2Cl2 and 1 mL TFA was added at room temperature. After 1 hr the solution was blown to dryness and activity taken into 1 mL EtOH (10 μL saturated ascorbic acid/EtOH was added). Isolated activities for [^125I]17, 18, 26, and 27 were 197, 189, 600 and 197 μCi respectively. A representative picture of HPLC profiles (FIG. 3) for radiolabeled protected (intermediate), cold standard and radioactive trace of final compound is shown for [^125I]26.
For iv injection 150 μL of labeled solution was diluted with saline to 3.75 mL. Mice were injected with 2˜3 μCi of [^125I]18, 27, 26, and 18 in 0.15 mL saline. Injected radioactivity was 2 to 3 μCi.
Biodistribution study of [^125I]18, 27, 26, and 18 in tumor bearing nude mice were evaluated for their ability to localization of PSMA positive tumor (Tables 5, 6, 7 and 8). It was observed that [^125I]26 and [^125I] […] These new agents are valuable for radionuclide therapy, when labeled with beta or alpha-emitting isotopes; but these agents will also be useful as diagnostic agents when labeled with gamma-emitting isotopes.

[1] = n = 3 (a: n = 2), read-out: IC50 *(PC-3 PIP cells and [125I]MIP-1095)

Chain of PSMA (Q04609 whole entry, species assumed): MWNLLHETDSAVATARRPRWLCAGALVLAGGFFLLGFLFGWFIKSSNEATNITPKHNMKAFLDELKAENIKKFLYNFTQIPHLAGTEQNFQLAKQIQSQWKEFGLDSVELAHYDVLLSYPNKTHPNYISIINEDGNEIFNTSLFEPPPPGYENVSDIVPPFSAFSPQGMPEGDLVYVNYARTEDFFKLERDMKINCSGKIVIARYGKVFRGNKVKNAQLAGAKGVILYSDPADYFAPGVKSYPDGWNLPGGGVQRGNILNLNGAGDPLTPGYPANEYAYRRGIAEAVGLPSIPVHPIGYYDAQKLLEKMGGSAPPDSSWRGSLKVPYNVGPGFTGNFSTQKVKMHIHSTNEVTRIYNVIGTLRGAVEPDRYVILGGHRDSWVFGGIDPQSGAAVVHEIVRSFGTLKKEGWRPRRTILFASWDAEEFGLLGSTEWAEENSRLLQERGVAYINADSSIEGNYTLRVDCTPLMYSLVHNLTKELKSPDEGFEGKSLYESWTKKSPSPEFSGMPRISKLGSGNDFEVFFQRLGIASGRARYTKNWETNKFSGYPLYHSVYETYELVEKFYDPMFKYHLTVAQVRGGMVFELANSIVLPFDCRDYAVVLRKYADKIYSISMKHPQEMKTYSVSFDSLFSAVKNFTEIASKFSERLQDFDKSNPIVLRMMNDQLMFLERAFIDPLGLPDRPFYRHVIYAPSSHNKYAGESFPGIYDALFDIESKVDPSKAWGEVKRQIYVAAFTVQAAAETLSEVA

Compound: O=C(O)CC[C@H](NC(=O)N[C@@H](CCCCNC(=O)[C@H](Cc1ccccc1)NC(=O)COc1ccc(C[C@H](NC(=O)CNC(=O)CCC2C(=O)[O][Lu-4]345678[O]C(=O)CN9CC[N+]23CC[N+]4(CC[N+]5(CC9)C(CCC(=O)[OH+]6)C(=O)[O]7)CC(=O)[O]8)C(=O)O)cc1)C(=O)O)C(=O)O (stereo partly shown) [[^natLu]4]
IC50 (PSMA): 18.7 ± 0.3 nM

IC50 (PSMA; [1]): 22.6 ± 1.59 nM
Compound: O=C(O)CCC(C(=O)O)N1CCN(CC(=O)O)CCN(C(CCC(=O)N[C@@H](CCC(=O)O)C(=O)N[C@@H](CCC(=O)O)C(=O)N[C@@H](Cc2ccc(OCC(=O)N[C@@H](Cc3ccccc3)C(=O)NCCCC[C@H](NC(=O)N[C@@H](CCC(=O)O)C(=O)O)C(=O)O)cc2)C(=O)O)C(=O)O)CCN(CC(=O)O)CC1 (stereo partly drawn) [Compound 29, (((1S)-5-((2S)-2-(2-(4-((2S)-2-((2S)-2-((2S)-2-(4-(4,10-Bis(carboxymethyl)-7-(1,3-dicarboxypropyl)-1,4,7,10-tetraazacyclododecan-1-yl)-4-carboxybutanamido)-4-carboxybutanamido)-4-carboxybutanamido)-2-carboxyethyl)phenoxy)acetamido)-3-phenylpropanamido)-1-carboxypentyl)carbamoyl)-L-glutamic acid]

IC50 (PSMA; [1]): 47.8 ± 3.16 nM
Compound: O=C(O)CCc1ccc(O)c(CN(CCN(CC(=O)O)Cc2cc(CCC(=O)NCCCCCC(=O)NCCCC[C@H](NC(=O)N[C@@H](CCC(=O)O)C(=O)O)C(=O)O)ccc2O)CC(=O)O)c1 [PSMA-11, Glu-NH—CO—NH-Lys-(Ahx)-(HBED-CC), reference compound]

IC50 (PSMA; [1]): 4.74 ± 0.37 nM
Compound: O=C(O)CC[C@H](NC(=O)N[C@@H](CCCCNC(=O)[C@H](Cc1ccccc1)NC(=O)COc1ccc(C[C@H](NC(=O)[C@H](CCC(=O)O)NC(=O)c2ccc(I)cc2)C(=O)O)cc1)C(=O)O)C(=O)O [Compound 26, (((S)-1-Carboxy-5-((S)-2-(2-(4-((S)-2-carboxy-2-((S)-4-carboxy-2-(4-iodobenzamido)butanamido)ethyl)phenoxy)acetamido)-3-phenylpropanamido)pentyl)carbamoyl)-L-glutamic acid]

IC50 (PSMA; [1]): 28.1 ± 0.85 nM
Compound: O=C(O)CC[C@H](NC(=O)N[C@@H](CCCCNC(=O)[C@H](Cc1ccccc1)NC(=O)COc1ccc(C(=O)NCCCC[C@H](NC(=O)CNC(=O)CCC(C(=O)O)N2CCN(CC(=O)O)CCN(CC(=O)O)CCN(CC(=O)O)CC2)C(=O)O)cc1)C(=O)O)C(=O)O (stereo partly drawn) [Compound 38, (((1S)-1-Carboxy-5-((2S)-2-(2-(4-(((5S)-5-carboxy-5-(2-(4-carboxy-4-(4,7,10-tris(carboxymethyl)-1,4,7,10-tetraazacyclododecan-1-yl)butanamido)acetamido)pentyl)carbamoyl)phenoxy)acetamido)-3-phenylpropanamido)pentyl)carbamoyl)-L-glutamic acid]

IC50 (PSMA; [1]): 2.63 ± 0.13 nM
Compound: O=C(O)CC[C@H](NC(=O)N[C@@H](CCCCNC(=O)[C@H](Cc1ccccc1)NC(=O)[C@H](CCC(=O)O)NC(=O)c1ccc(I)cc1)C(=O)O)C(=O)O [Compound 17, (((S)-1-Carboxy-5-((S)-2-((S)-4-carboxy-2-(4-iodobenzamido)butanamido)-3-phenylpropanamido)pentyl)carbamoyl)-L-glutamic acid]

IC50 (PSMA; [1]): 22.2 ± 2.1 nM
Compound: O=C([O-])CN1CCN(C(CCC(=O)NCC(=O)N[C@@H](Cc2ccc(OCC(=O)N[C@@H](Cc3ccccc3)C(=O)NCCCC[C@H](NC(=O)N[C@@H](CCC(=O)O)C(=O)O)C(=O)O)cc2)C(=O)O)C(=O)[O-])CCN(CC(=O)[O-])CCN(C(CCC(=O)O)C(=O)O)CC1.[Ga+3] (stereo partly drawn) [[^natGa]4, (4S,11S,15S)-4-benzyl-1-(4-((2S)-2-(2-(4-(4,10-bis(carboxymethyl)-7-(1,3-dicarboxypropyl)-1,4,7,10-tetraazacyclododecan-1-yl)-4-carboxylatebutanamido)acetamido)-2-carboxyethyl)phenoxy)-2,5,13-trioxo-3,6,12,14-tetraazaheptadecane-11,15,17-tricarboxylate gallium]

IC50 (PSMA; [1]): 1.99 ± 0.06 nM
Compound: O=C(O)CC[C@H](NC(=O)N[C@@H](CCCCNC(=O)[C@H](Cc1ccccc1)NC(=O)[C@H](CCC(=O)O)NC(=O)[C@H](CCC(=O)O)NC(=O)c1ccc(I)cc1)C(=O)O)C(=O)O [Compound 18, (((S)-1-Carboxy-5-((S)-2-((S)-4-carboxy-2-((S)-4-carboxy-2-(4-iodobenzamido)butanamido)butanamido)-3-phenylpropanamido)pentyl)carbamoyl)-L-glutamic acid]

Biodistribution: Blood (PIP tumor and PC3 tumor; 1 h): 0.71 ± 0.31 % ID/g
Biodistribution: Bone (PIP tumor and PC3 tumor; 1 h): 0.89 ± 0.08 % ID/g
Biodistribution: Heart (PIP tumor and PC3 tumor; 1 h): 3.06 ± 0.48 % ID/g
Biodistribution: Kidney (PIP tumor and PC3 tumor; 1 h): 96.21 ± 21.68 % ID/g
Biodistribution: Liver (PIP tumor and PC3 tumor; 1 h): 3.57 ± 0.32 % ID/g
Biodistribution: Lung (PIP tumor and PC3 tumor; 1 h): 3.16 ± 0.55 % ID/g
Biodistribution: Muscle (PIP tumor and PC3 tumor; 1 h): 0.95 ± 0.27 % ID/g
Biodistribution: PC3 tumor (PIP tumor and PC3 tumor; 1 h): 2.22 ± 0.58 % ID/g
Biodistribution: PIP tumor (PIP tumor and PC3 tumor; 1 h): 13.29 ± 3.46 % ID/g
Biodistribution: Pancreas (PIP tumor and PC3 tumor; 1 h): 1.66 ± 0.93 % ID/g
Biodistribution: Skin (PIP tumor and PC3 tumor; 1 h): 1.48 ± 0.44 % ID/g
Biodistribution: Spleen (PIP tumor and PC3 tumor; 1 h): 6.83 ± 0.46 % ID/g
Biodistribution: gland (PIP tumor and PC3 tumor; 1 h): 4.03 ± 0.46 % ID/g
Biodistribution: thyroid (PIP tumor and PC3 tumor; 1 h): 15.99 ± 1.88 % ID/g
Biodistribution: Bladder* (PIP tumor and PC3 tumor; 1 h): 97.62 ± 20.87 % ID/g
Biodistribution: Stomach* (PIP tumor and PC3 tumor; 1 h): 0.46 ± 0.29 % ID/g
Biodistribution: large intestine* (PIP tumor and PC3 tumor; 1 h): 1.12 ± 0.65 % ID/g
Biodistribution: small intestine* (PIP tumor and PC3 tumor; 1 h): 1.98 ± 0.27 % ID/g
PIP/blood (PIP tumor and PC3 tumor; 1 h): 21.30 ± 8.28
PIP/muscle (PIP tumor and PC3 tumor; 1 h): 16.14 ± 10.36
Biodistribution: Blood (PIP tumor and PC3 tumor; 4 h): 0.33 ± 0.17 % ID/g
Biodistribution: Bone (PIP tumor and PC3 tumor; 4 h): 0.45 ± 0.23 % ID/g
Biodistribution: Heart (PIP tumor and PC3 tumor; 4 h): 1.60 ± 0.46 % ID/g
Biodistribution: Kidney (PIP tumor and PC3 tumor; 4 h): 69.39 ± 24.24 % ID/g
Biodistribution: Liver (PIP tumor and PC3 tumor; 4 h): 2.62 ± 1.62 % ID/g
Biodistribution: Lung (PIP tumor and PC3 tumor; 4 h): 1.50 ± 0.65 % ID/g
Biodistribution: Muscle (PIP tumor and PC3 tumor; 4 h): 0.69 ± 0.27 % ID/g
Biodistribution: PC3 tumor (PIP tumor and PC3 tumor; 4 h): 1.20 ± 0.52 % ID/g
Biodistribution: PIP tumor (PIP tumor and PC3 tumor; 4 h): 15.27 ± 5.40 % ID/g
Biodistribution: Pancreas (PIP tumor and PC3 tumor; 4 h): 0.89 ± 0.13 % ID/g
Biodistribution: Skin (PIP tumor and PC3 tumor; 4 h): 0.81 ± 0.37 % ID/g
Biodistribution: Spleen (PIP tumor and PC3 tumor; 4 h): 4.37 ± 1.70 % ID/g
Biodistribution: gland (PIP tumor and PC3 tumor; 4 h): 2.25 ± 0.80 % ID/g
Biodistribution: thyroid (PIP tumor and PC3 tumor; 4 h): 26.99 ± 18.70 % ID/g
Biodistribution: Bladder* (PIP tumor and PC3 tumor; 4 h): 123.13 ± 40.10 % ID/g
Biodistribution: Stomach* (PIP tumor and PC3 tumor; 4 h): 0.72 ± 0.76 % ID/g
Biodistribution: large intestine* (PIP tumor and PC3 tumor; 4 h): 0.74 ± 0.25 % ID/g
Biodistribution: small intestine* (PIP tumor and PC3 tumor; 4 h): 1.11 ± 0.82 % ID/g
PIP/blood (PIP tumor and PC3 tumor; 4 h): 50.29 ± 15.07
PIP/muscle (PIP tumor and PC3 tumor; 4 h): 25.78 ± 14.13
Liver uptakes (PIP tumor and PC3 tumor; mouse, in vivo): low
Compound: O=C(O)CC[C@H](NC(=O)N[C@@H](CCCCNC(=O)[C@H](Cc1ccccc1)NC(=O)[C@H](CCC(=O)O)NC(=O)[C@H](CCC(=O)O)NC(=O)c1ccc([125I])cc1)C(=O)O)C(=O)O [[^125I]18]
